What was measured:
CLB2 = target: T1, CLB2 (Homo sapiens, UniProt P22676); assay: T7 phage display competition binding assay (immobilized atorvastatin), CLB2; conditions: soluble competitor vs atorvastatin-coated affinity matrix; T7 phage displaying CLB2
T1 construct: made in house; host or cells: T7 phage amplified in E. coli
T1 sequence (P22676 1-271): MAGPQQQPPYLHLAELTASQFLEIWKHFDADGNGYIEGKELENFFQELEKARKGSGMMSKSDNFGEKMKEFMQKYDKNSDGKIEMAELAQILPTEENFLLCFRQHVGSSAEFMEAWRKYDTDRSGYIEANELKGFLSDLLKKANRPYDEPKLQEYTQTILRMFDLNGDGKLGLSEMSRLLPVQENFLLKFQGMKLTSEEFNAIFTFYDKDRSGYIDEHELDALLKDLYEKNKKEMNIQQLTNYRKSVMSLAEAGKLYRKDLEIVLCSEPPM
Source text: (§1) The T7 phage displaying human PDE6D and CLB2 were obtained following the procedure of WO 01/18234, published Mar. 15, 2001, and U.S. patent applications Ser. No. 10/115,442, “Phage Display Affinity Filter and Forward Screen,” filed Apr. 2, 2002 and Ser. No. 10/214,654, “Uncoupling DNA Insert Propagation and Protein Display,” filed Aug. 7, 2002. […] The phage eluate was then amplified by growth in E. coli and the affinity enrichment procedure was repeated.
(§2) The dissociation constants, Kd's, for the interaction between the pyrrole compounds and the novel targets were obtained following the procedure of the co-pending patent applications U.S. Ser. Nos. 10/115,442, “Phage Display Affinity Filter and Forward Screen,” filed Apr. 2, 2002 and 60/480,587, “Protein Family Profiling Tool and Methods,” filed Jun. 20, 2003.

PDE6D [1] = target: T2, PDE6D (Homo sapiens, UniProt O43924); assay: T7 phage display competition binding assay (immobilized atorvastatin), PDE6D; parameters: made in house; host or cells: T7 phage amplified in E. coli; conditions: soluble competitor vs atorvastatin-coated affinity matrix; T7 phage displaying human PDE6D
Source text: as §1, §2

PDE6D [2] = target: T2, PDE6D; assay: phage-based competition binding screen at 2 μM; parameters: made in house; host or cells: phage; conditions: 2 μM competitor, duplicate
Experimental: Forty-four molecules were screened for PDE6D binding activity in a standard phage-based competition binding assay, as described in co-pending U.S. patent applications Ser. No. 10/115,442, filed 2 Apr. 2002, and Ser. No. 10/406,797 filed on 2 Apr. 2003 (or PCT International Application PCT/US03/10247 filed 2 Apr. 2003). All compounds were screened in duplicate (duplicate sets of bars) at a concentration of 2 μM.

HMG-CoA reductase = target: T3, HMG-CoA reductase (Homo sapiens, UniProt P04035); assay: enzymatic activity-based HMG-CoA reductase assay; type: biochemical; conditions: concentrations up to 4 μM
T3 sequence (P04035 1-888): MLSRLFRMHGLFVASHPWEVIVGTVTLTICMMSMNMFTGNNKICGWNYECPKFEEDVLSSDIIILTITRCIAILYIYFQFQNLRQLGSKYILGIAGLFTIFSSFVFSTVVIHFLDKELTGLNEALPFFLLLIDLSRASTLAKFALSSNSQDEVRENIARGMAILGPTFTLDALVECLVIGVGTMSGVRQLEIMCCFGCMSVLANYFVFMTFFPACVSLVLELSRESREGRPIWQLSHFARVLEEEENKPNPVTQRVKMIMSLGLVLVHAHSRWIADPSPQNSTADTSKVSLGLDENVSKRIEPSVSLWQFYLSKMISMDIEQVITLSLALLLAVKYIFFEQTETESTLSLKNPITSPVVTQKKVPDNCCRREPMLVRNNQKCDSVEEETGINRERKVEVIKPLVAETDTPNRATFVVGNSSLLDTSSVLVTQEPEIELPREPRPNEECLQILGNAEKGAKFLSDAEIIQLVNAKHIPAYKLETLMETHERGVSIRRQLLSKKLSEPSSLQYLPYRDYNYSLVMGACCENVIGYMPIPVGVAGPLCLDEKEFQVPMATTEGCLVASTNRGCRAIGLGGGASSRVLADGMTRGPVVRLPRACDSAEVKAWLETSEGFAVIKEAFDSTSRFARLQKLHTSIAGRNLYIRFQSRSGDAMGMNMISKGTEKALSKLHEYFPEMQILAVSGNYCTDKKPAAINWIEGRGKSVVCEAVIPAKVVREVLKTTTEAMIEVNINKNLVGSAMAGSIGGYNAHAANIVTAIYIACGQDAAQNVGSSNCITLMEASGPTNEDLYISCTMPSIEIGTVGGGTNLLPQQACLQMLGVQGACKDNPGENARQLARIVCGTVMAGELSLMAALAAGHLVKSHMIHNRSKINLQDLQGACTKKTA
Experimental: In addition, compounds 781430, 781066, 780780, 780754, 779974, 781456, 782236, 782756, 783250 and 780520 were tested in enzymatic activity-based HMG-CoA reductase assays. […] Blank cells indicate there was no detectable interaction while the “nd” designation indicates the Kd was not determined.

Row | SMILES | Kd (CLB2) [nM] | Kd (PDE6D [1]) [nM] | fraction of PDE6D-displaying phage bound to immobilized atorvastatin (screen outcome) (PDE6D [2]) | inhibition of the activity of HMG-CoA reductase (HMG-CoA reductase)
1 | CC(C)c1c(C(=O)Nc2ccccc2)c(-c2ccccc2)c(-c2ccc(F)cc2)n1CC(=O)OC(C)(C)C [Compound 780546] | – | 880 | – | –
2 | CC(C)c1[nH]c(-c2ccccc2)c(-c2ccccc2)c1C(=O)Nc1ccccc1 [Compound 780858] | 1640 | 60 | candidate lead compounds | –
3 | COc1ccc(-c2[nH]c(C(C)C)c(C(=O)Nc3ccccc3)c2-c2ccccc2)cc1 [Compound 780988] | 6000 | 430 | – | –
4 | CC(C)c1c(C(=O)Nc2ccccc2)c(-c2ccccc2)c(-c2ccc(F)cc2)n1Cc1ccccc1 [Compound 780000] | – | 598 | – | –
5 | CCC(C)C(CO)n1c(-c2ccc(F)cc2)c(-c2ccccc2)c(C(=O)Nc2ccccc2)c1C(C)C (centres unmarked) [Compound 780936] | 3000 | 141 | – | –
6 | CC(C)c1c(C(=O)Nc2ccccc2)c(-c2ccccc2)c(-c2ccc(F)cc2)n1[C@H](C)C(=O)OC(C)(C)C [Compound 780650] | 2100 | – | – | –
7 | CC(C)c1c(C(=O)Nc2ccccc2)c(-c2ccccc2)c(-c2ccc(F)cc2)n1CCCCCCC(=O)O [Compound 780728] | 1650 | 350 | – | –
8 | COCC(C(O)c1ccccc1)n1c(-c2ccc(F)cc2)c(-c2ccccc2)c(C(=O)Nc2ccccc2)c1C(C)C (centres unmarked) [Compound 780910] | 1000 | 280 | – | –
9 | CC(C)c1c(C(=O)Nc2ccccc2)c(-c2ccccc2)c(-c2ccc(F)cc2)n1CC[C@@H]1C[C@H](CC(=O)O)OC(C)(C)O1 [Compound 782964] | 9000 | 685 | – | –

The remaining lines, values ahead:

Row | Kd (CLB2) [nM] | Kd (PDE6D [1]) [nM] | fraction of PDE6D-displaying phage bound to immobilized atorvastatin (screen outcome) (PDE6D [2]) | inhibition of the activity of HMG-CoA reductase (HMG-CoA reductase) | SMILES
10 | 6000 | 387 | – | – | CC(C)c1c(C(=O)Nc2ccccc2)c(-c2ccccc2)c(-c2ccc(F)cc2)n1CCN1CCOCC1 [Compound 780052]
11 | 6070 | 114 | candidate lead compounds | – | CC(C)c1c(C(=O)Nc2ccccc2)c(-c2ccccc2)c(-c2ccc(F)cc2)n1C [Compound 780104]
12 | 2000 | 114 | – | – | CC(C)c1c(C(=O)Nc2ccccc2)c(-c2ccccc2)c(-c2ccc(F)cc2)n1CCCCCCO [Compound 780702]
13 | 1830 | 58 | – | none of the tested compounds inhibited | CC(=O)NCCn1c(-c2ccc(F)cc2)c(-c2ccccc2)c(C(=O)Nc2ccccc2)c1C(C)C [Compound 780754]
14 | – | 6550 | – | – | CCOC(=O)CCn1c(-c2ccc(F)cc2)c(-c2ccccc2)c(C(=O)Nc2ccccc2)c1C(C)C [Compound 780026]
15 | – | 805 | – | – | CCCCCn1c(-c2ccc(F)cc2)c(-c2ccccc2)c(C(=O)Nc2ccccc2)c1C(C)C [Compound 782366]
16 | 335 | 1100 | – | – | CC(C)c1c(C(=O)Nc2ccccc2)c(-c2ccccc2)c(-c2ccc(F)cc2)n1CC(O)CC(=O)O (centres unmarked) [Compound 783770]
17 | 1850 | 44 | candidate lead compounds | none of the tested compounds inhibited | CC(C)c1c(C(=O)Nc2ccccc2)c(-c2ccccc2)c(-c2ccc(F)cc2)n1CCCN1CCCC1=O [Compound 780520]
18 | 2340 | 488 | – | – | CC(C)c1c(C(=O)Nc2ccccc2)c(-c2ccccc2)c(-c2ccc(F)cc2)n1CCO [Compound 780078]
19 | 1850 | – | – | – | CC(C)c1c(C(=O)Nc2ccccc2)c(-c2ccccc2)c(-c2ccc(F)cc2)n1CCS(=O)O [Compound 783666]
20 | – | 300 | – | – | CC(C)c1c(C(=O)Nc2ccccc2)c(-c2ccccc2)c(-c2ccc(F)cc2)n1CCOCCO [Compound 780598]
21 | 1890 | 61 | candidate lead compounds | – | CC(C)c1c(C(=O)Nc2ccccc2)c(-c2ccccc2)c(-c2ccc(F)cc2)n1CCCCCO [Compound 780676]
